According to patent US20260070945A1, “MACROCYCLIC IMMUNOMODULATORS” (Bristol-Myers Squibb Company, priority 2022, published 2026):
pIC50: −log10 of the molar value. *1 amine or outer side, *2 acyl side, *3 side chain or, on linkers, in order; H or OH if unused. Where a SMILES comes first, the peptide text is derived from it. Bridges are numbered along the chain shown (N, C = ends). [ ]: non-standard residue; d: D form. The star is where a group is joined. ξ: configuration not given here. Phe(3-CF3) = N[C@@H](Cc1cccc(C(F)(F)F)c1)C(=O)O; Phe(4-CF3) = N[C@@H](Cc1ccc(C(F)(F)F)cc1)C(=O)O; Ala(morpholin-4-yl) = N[C@@H](CN1CCOCC1)C(=O)O; Phe(4-COOH) = N[C@@H](Cc1ccc(C(=O)O)cc1)C(=O)O; Bip = N[C@@H](Cc1ccc(-c2ccccc2)cc1)C(=O)O; Phe(3-Me) = Cc1cccc(C[C@H](N)C(=O)O)c1; γGlu = O=C(O)[C@H](CCC(=O)[*:2])N[*:1]; Abu(3S-NH2) = C[C@H](N)[C@H](N)C(=O)O; Gly(decyl) = CCCCCCCCCC[C@H](N)C(=O)O; NH(CH2)12COOH = O=C(O)CCCCCCCCCCCCN*; Val(3-OH) = CC(C)(O)[C@H](N)C(=O)O; 4Pal = N[C@@H](Cc1ccncc1)C(=O)O; Cha = N[C@@H](CC1CCCCC1)C(=O)O; Cit = NC(=O)NCCC[C@H](N)C(=O)O; Ile(3ξ) = CCC(C)[C@H](N)C(=O)O; Thr(3ξ) = CC(O)[C@H](N)C(=O)O; 12Ado = NCCCCCCCCCCCC(=O)O; Carboxymethyl = O=C(O)C*; NMeA = CN[C@@H](C)C(=O)O; Orn = NCCC[C@H](N)C(=O)O; Aun = NCCCCCCCCCCC(=O)O; Dab = NCC[C@H](N)C(=O)O; Dap = NC[C@H](N)C(=O)O; AEEA = NCCOCCOCC(=O)O

What follows are compounds tested against T1, PD-1/PD-L1 interaction (PE-labeled human PD-L1-Ig binding to Jurkat cell line over-expressing human PD-1) (Homo sapiens, UniProt Q15116) (assay: Jurkat-PD-1 Cell Binding High-Content Screening Assay (CBA)). Details: Jurkat-hPD-1 cells, PE-labeled PD-L1-Ig 20 nM final; read-out: Jurkat HPD1 PDL1 IC50.
T1 construct: expressed in transfected cells; host or cells: Jurkat
In short: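 Jurkat cells overexpressing human PD-1 (8×10^3/well, DMEM + 10% FCS) preincubated with compound 2 h at 37 °C, then PE-labelled human PD-L1-Ig (20 nM final) for 1 h. Cells fixed in paraformaldehyde with Hoechst 33342; bound PD-L1 quantified by high-content imaging.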

T1 sequence (Q15116 25-288): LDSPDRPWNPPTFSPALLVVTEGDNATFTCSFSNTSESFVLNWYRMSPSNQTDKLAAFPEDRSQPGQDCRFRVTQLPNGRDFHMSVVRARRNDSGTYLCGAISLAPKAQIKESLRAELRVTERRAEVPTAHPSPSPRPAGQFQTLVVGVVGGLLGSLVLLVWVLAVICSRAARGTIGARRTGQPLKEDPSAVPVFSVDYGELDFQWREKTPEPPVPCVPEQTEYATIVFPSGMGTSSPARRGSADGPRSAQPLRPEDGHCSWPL

Row | pIC50 | Structure (SMILES)
1 | 7.82 | CC(C)C[C@H]1NC(=O)[C@H](C)N(C)C(=O)[C@H](CCCNC(N)=O)NC(=O)[C@H](Cc2ccc(-c3ccccc3)cc2)NC(=O)[C@H](Cc2ccc(C(=O)O)cc2)NC(=O)[C@H](Cc2cccc(C(F)(F)F)c2)NC(=O)[C@H](CC(=O)O)NC(=O)[C@H](Cc2ccc(OCC(=O)O)cc2)NC(=O)[C@H](CN2CCOCC2)NC(=O)CSC[C@@H](C(=O)N[C@@H](CCN)C(=O)NCCCCCCCCCCCCC(=O)O)NC(=O)[C@H](CO)NC(=O)[C@H](C(C)(C)O)NC(=O)[C@H](CC2CCCCC2)NC(=O)[C@H](CCN)NC1=O [Example 1156] ({CH2CO}-[Ala(morpholin-4-yl)]Y(Carboxymethyl)D[Phe(3-CF3)][Phe(4-COOH)][Bip][Cit][NMeA][dL][Dab][Cha][Val(3-OH)]SC[Dab]-{NH(CH2)12COOH}; thioether N-14)
2 | 7.76 | CCC(C)[C@@H]1NC(=O)[C@H](Cc2ccc(-c3ccccc3)cc2)NC(=O)[C@H](CC(C)C)NC(=O)[C@H](Cc2c[nH]c3ccccc23)NC(=O)[C@H](CC(=O)O)NC(=O)[C@H](Cc2ccc(C(=O)O)cc2)NC(=O)[C@H](Cc2ccc(OCC(=O)O)cc2)NC(=O)CSC[C@@H](C(=O)N[C@H](CC(N)=O)C(=O)NCCOCCOCC(=O)NCCCCCCCCCCC(=O)O)NC(=O)[C@H](CO)NC(=O)[C@H](C(C)C)NC(=O)[C@H](CC2CCCCC2)NC(=O)[C@H](CCN)NC(=O)[C@@H](CC(C)C)NC(=O)[C@H](C)N(C)C1=O (stereo partly drawn) [Example 2065] ({CH2CO}-Y(Carboxymethyl)[Phe(4-COOH)]DWL[Bip][Ile(3ξ)][NMeA][dL][Dab][Cha]VSC[dN][AEEA][Aun]-OH; thioether N-14)
3 | 7.31 | CC(C)C[C@@H]1NC(=O)[C@H](Cc2c[nH]c3ccccc23)NC(=O)[C@H](CC(=O)O)NC(=O)[C@H](Cc2ccc(C(=O)O)cc2)NC(=O)[C@H](Cc2ccc(OCC(=O)O)cc2)NC(=O)CSC[C@@H](C(=O)NCCOCCOCC(=O)NCCCCCCCCCCC(=O)O)NC(=O)[C@H](C(C)O)NC(=O)[C@H](C(C)C)NC(=O)[C@H](CC2CCCCC2)NC(=O)[C@H](CCN)NC(=O)[C@@H](CC(C)C)NC(=O)[C@H](C)N(C)C(=O)[C@H](CCC(N)=O)NC(=O)[C@H](Cc2ccc(-c3ccccc3)cc2)NC1=O (stereo partly drawn) [Example 2285] ({CH2CO}-Y(Carboxymethyl)[Phe(4-COOH)]DWL[Bip]Q[NMeA][dL][Dab][Cha]V[Thr(3ξ)]C[AEEA][Aun]-OH; thioether N-14)
4 | 7.67 | CC(C)C[C@H]1NC(=O)[C@H](C)N(C)C(=O)[C@H](CCC(N)=O)NC(=O)[C@H](Cc2ccc(-c3ccccc3)cc2)NC(=O)[C@H](Cc2ccc(C(=O)O)cc2)NC(=O)[C@H](Cc2cccc(C(F)(F)F)c2)NC(=O)[C@H](CC(=O)O)NC(=O)[C@H](Cc2ccc(OCC(=O)O)cc2)NC(=O)[C@H](CN2CCOCC2)NC(=O)CSC[C@@H](C(=O)N[C@@H](CCN)C(=O)NCCOCCOCC(=O)N[C@@H](CCC(=O)NCCOCCOCC(=O)NCCCCCCCCCCCCC(=O)O)C(=O)O)NC(=O)[C@H](CO)NC(=O)[C@H](C(C)(C)O)NC(=O)[C@H](CC2CCCCC2)NC(=O)[C@H](CCN)NC1=O [Example 1173] ({CH2CO}-[Ala(morpholin-4-yl)]Y(Carboxymethyl)D[Phe(3-CF3)][Phe(4-COOH)][Bip]Q[NMeA][dL][Dab][Cha][Val(3-OH)]SC[Dab][AEEA][γGlu][AEEA]-{NH(CH2)12COOH}; thioether N-14)
5 | 7.22 | CCC(C)[C@@H]1NC(=O)[C@H](Cc2ccc(-c3ccccc3)cc2)NC(=O)[C@H](CC(C)C)NC(=O)[C@H](Cc2c[nH]c3ccccc23)NC(=O)[C@H](CC(=O)O)NC(=O)[C@H](Cc2ccc(OCC(=O)O)cc2)NC(=O)[C@H](C(C)O)NC(=O)CSC[C@@H](C(=O)N[C@H](CC(N)=O)C(=O)NCCOCCOCC(=O)NCCCCCCCCCCC(=O)O)NC(=O)[C@H](CO)NC(=O)[C@H](C(C)C)NC(=O)[C@H](CC(C)C)NC(=O)[C@H](CCN)NC(=O)[C@@H](CC(C)C)NC(=O)[C@H](C)N(C)C1=O (stereo partly drawn) [Example 2058] ({CH2CO}-[Thr(3ξ)]Y(Carboxymethyl)DWL[Bip][Ile(3ξ)][NMeA][dL][Dab]LVSC[dN][AEEA][Aun]-OH; thioether N-14)
6 | 7.38 | Cc1cccc(C[C@@H]2NC(=O)[C@H](CC(=O)O)NC(=O)[C@H](Cc3ccc(OCC(=O)O)cc3)NC(=O)[C@H](CN)NC(=O)CSC[C@@H](C(=O)NCCCCCCCCCCC(=O)O)NC(=O)[C@H](CCCN)NC(=O)[C@H](C(C)C)NC(=O)[C@H](CC3CCCCC3)NC(=O)[C@H](CCN)NC(=O)[C@@H](CC(C)C)NC(=O)[C@H](C)N(C)C(=O)[C@H](Cc3ccc(O)cc3)NC(=O)[C@H](Cc3ccc(-c4ccccc4)cc3)NC(=O)[C@H](C(C)C)NC2=O)c1 [Example 1319] ({CH2CO}-[Dap]Y(Carboxymethyl)D[Phe(3-Me)]V[Bip]Y[NMeA][dL][Dab][Cha]V[Orn]C[Aun]-OH; thioether N-14)
7 | 7.95 | CC(C)C[C@@H]1NC(=O)[C@H](Cc2c[nH]c3ccccc23)NC(=O)[C@H](CC(=O)O)NC(=O)[C@H](Cc2ccncc2)NC(=O)[C@H](Cc2ccc(OCC(=O)O)cc2)NC(=O)CSC[C@@H](C(=O)N[C@@H](CCCNC(=N)N)C(=O)NCCOCCOCC(=O)NCCCCCCCCCCC(=O)O)NC(=O)[C@H](CO)NC(=O)[C@H](C(C)C)NC(=O)[C@H](CC2CCCCC2)NC(=O)[C@H](CCN)NC(=O)[C@@H](CC(C)C)NC(=O)[C@H](C)N(C)C(=O)[C@H](C(C)C)NC(=O)[C@H](Cc2ccc(-c3ccccc3)cc2)NC1=O [Example 1092] ({CH2CO}-Y(Carboxymethyl)[4Pal]DWL[Bip]V[NMeA][dL][Dab][Cha]VSCR[AEEA][Aun]-OH; thioether N-14)
8 | 7.04 | Cc1cccc(C[C@@H]2NC(=O)[C@H](CC(=O)O)NC(=O)[C@H](Cc3ccc(C(=O)O)cc3)NC(=O)[C@H](Cc3ccc(OCC(=O)O)cc3)NC(=O)CSC[C@@H](C(=O)N[C@@H](CC(=O)O)C(=O)NCCCCCCCCCCC(=O)O)NC(=O)[C@H](CO)NC(=O)[C@H](C(C)C)NC(=O)[C@H](CC(C)C)NC(=O)[C@H](CC(N)=O)NC(=O)[C@@H](CC(C)C)NC(=O)[C@H](C)N(C)C(=O)[C@H](C(C)C)NC(=O)[C@H](Cc3ccc(-c4ccccc4)cc3)NC(=O)[C@H](CC(C)C)NC2=O)c1 [Example 1001] ({CH2CO}-Y(Carboxymethyl)[Phe(4-COOH)]D[Phe(3-Me)]L[Bip]V[NMeA][dL]NLVSCD[Aun]-OH; thioether N-14 (inferred))
9 | 7.74 | CC(C)C[C@H]1NC(=O)[C@H](C)N(C)C(=O)[C@H](Cc2ccc(C(=O)O)cc2)NC(=O)[C@H](Cc2ccc(-c3ccccc3)cc2)NC(=O)[C@H](Cc2ccc(C(=O)O)cc2)NC(=O)[C@H](Cc2cccc(C(F)(F)F)c2)NC(=O)[C@H](CC(=O)O)NC(=O)[C@H](Cc2ccc(OCC(=O)O)cc2)NC(=O)[C@H]([C@H](C)N)NC(=O)CSC[C@@H](C(=O)N[C@@H](CCN)C(=O)NCCCCCCCCCCCCC(=O)O)NC(=O)[C@H](CCC(=O)O)NC(=O)[C@H](C(C)C)NC(=O)[C@H](CC2CCCCC2)NC(=O)[C@H](CCN)NC1=O [Example 1199] ({CH2CO}-[Abu(3S-NH2)]Y(Carboxymethyl)D[Phe(3-CF3)][Phe(4-COOH)][Bip][Phe(4-COOH)][NMeA][dL][Dab][Cha]VEC[Dab]-{NH(CH2)12COOH}; thioether N-14)
10 | 6.64 | CCC(C)[C@@H]1NC(=O)[C@H](Cc2ccc(-c3ccccc3)cc2)NC(=O)[C@H](C(C)C)NC(=O)[C@H](Cc2c[nH]c3ccccc23)NC(=O)[C@H](CC(=O)O)NC(=O)[C@H](Cc2ccc(OCC(=O)O)cc2)NC(=O)[C@H](C(C)O)NC(=O)CSC[C@@H](C(=O)N[C@@H](CCCN)C(=O)N[C@@H](CO)C(=O)NCCCCCCCCCCCC(=O)O)NC(=O)[C@H](CCCN)NC(=O)[C@H](C(C)C)NC(=O)[C@H](CC2CCCCC2)NC(=O)[C@H](CCN)NC(=O)[C@@H](CC(C)C)NC(=O)[C@H](C)N(C)C1=O (stereo partly drawn) [Example 2408] ({CH2CO}-[Thr(3ξ)]Y(Carboxymethyl)DWV[Bip][Ile(3ξ)][NMeA][dL][Dab][Cha]V[Orn]C[Orn]S[12Ado]-OH; thioether N-14)

Same assay, conditions: PE-labeled PD-L1-Ig 20 nM final, Jurkat-hPD-1 cells; read-out: Jurkat HPD1 PDL1 IC50

Row | pIC50 | Structure (SMILES)
11 | 7.04 | CCCCCCCCCC[C@@H]1NC(=O)[C@H](C(C)C)NC(=O)[C@H](CC2CCCCC2)NC(=O)[C@H](CCN)NC(=O)[C@@H](CC(C)C)NC(=O)[C@H](C)N(C)C(=O)[C@H](Cc2ccc(OCC(=O)O)cc2)NC(=O)[C@H](Cc2ccc(-c3ccccc3)cc2)NC(=O)[C@H](Cc2ccc(OCC(=O)O)cc2)NC(=O)[C@H](Cc2cccc(C)c2)NC(=O)[C@H](CC(=O)O)NC(=O)[C@H](Cc2ccc(OCC(=O)O)cc2)NC(=O)[C@H]([C@@H](C)O)NC(=O)CSC[C@@H](C(=O)N[C@@H](CCN)C(=O)NCCOCCOCC(=O)NCCCCCCCCCCCC(=O)O)NC1=O [Example 2673] ({CH2CO}-TY(Carboxymethyl)D[Phe(3-Me)]Y(Carboxymethyl)[Bip]Y(Carboxymethyl)[NMeA][dL][Dab][Cha]V[Gly(decyl)]C[Dab][AEEA][12Ado]-OH; thioether N-14)
12 | 7.65 | Cc1cccc(C[C@@H]2NC(=O)[C@H](CC(=O)O)NC(=O)[C@H](Cc3ccc(OCC(=O)O)cc3)NC(=O)[C@H](Cc3ccc(C(F)(F)F)cc3)NC(=O)CSC[C@@H](C(=O)N[C@@H](CCN)C(=O)NCCOCCOCC(=O)NCCCCCCCCCCC(=O)O)NC(=O)[C@H](CCC(=O)O)NC(=O)[C@H](C(C)C)NC(=O)[C@H](CC3CCCCC3)NC(=O)[C@H](CCN)NC(=O)[C@@H](CC(C)C)NC(=O)[C@H](C)N(C)C(=O)[C@H](Cc3ccc(C(=O)O)cc3)NC(=O)[C@H](Cc3ccc(-c4ccccc4)cc3)NC(=O)[C@H](Cc3ccc(C(=O)O)cc3)NC2=O)c1 [Example 2578] ({CH2CO}-[Phe(4-CF3)]Y(Carboxymethyl)D[Phe(3-Me)][Phe(4-COOH)][Bip][Phe(4-COOH)][NMeA][dL][Dab][Cha]VEC[Dab][AEEA][Aun]-OH; thioether N-14)
